In patent US20060057639A1, “CaMKII/calcium channel phosphorylation-related compositions and methods” (priority 2004, published 2006):

Key:
[1] = target: T1, interaction of autophosphorylated CaMKII with α1C amino acids 1581-1690 (Rattus norvegicus, UniProt P11275); experiment: GST pull down of autophosphorylated α-CaMKII with α1C 1581-1690 fusion protein, peptide interference; format: binding; conditions: 40 μM peptide; 20 nM autophosphorylated α-CaMKII
T1 construct: made in house; host or cells: GST fusion from bacteria
Protocol: (B) Immunoblot with CBα2 after GST pull down of purified autophosphorylated α-CaMKII (20 nM), using α1C amino acids 1581-1690 fused to GST. Pull down assay performed in the presence of 40 μM of the indicated peptide or the peptide diluent DMSO. (C) Immunoblots with CBα2 or an anti-CaM antibody after a GST pull down assay, using α1C amino acids 1581-1690 (WT), a ^1644TVGKFY^1649→EEDAAA mutant (Mut6), or GST alone, of purified autophosphorylated CaMKII (left) or CaM (right). Top panels show a Ponceau stain of each fusion protein. […] Asterisk indicates p<0.001 for a one-way analysis of variance followed by a Dunnett's test to identify specific pair-wise differences between the means for Mut6 vs. wt and GST vs. wt, n=4-8. […] Top panels show a Ponceau stain of each fusion protein.
Peptides spanning α1C residues 1581-1690 have previously been described (Pitt et al., 2001). The NMDA-L peptide (Bayer et al., 2001), peptides AC-2 (Hanson et al., 1989), AC-3i (Braun and Schulman, 1995), and AC-3c (Braun and Schulman, 1995) have been described elsewhere.
The binding reactions were accomplished in Tris binding buffer (50 mM Tris, 150 mM NaCl, 0.1% T-20 at pH 7.4 ml plus 0.1% BSA) containing 20 nM purified CaMKII. The total protein from the HEK293 cell lysates added to each binding reaction ranged from 9-22 μg, determined by normalizing for the amount of CaMKII activity (Singla et al., 2001). Pre-autophosphorylayion of CaMKII (purified and lysate) was accomplished at 4° C. for 5 min in Tris binding buffer plus 1 mM CaCl2, 5 μM CaM, 1 mM ATP, and 5 mM MgCl2 to restrict the sites of autophosphorylation to primarily Thr286 (Ikeda et al., 1991; Lai et al., 1987; Lou and Schulman, 1989). Final concentration of these components in the binding reaction (1:40) was 0.025 mM CaCl2, 0.125 μM CaM, 0.025 mM ATP, and 0.125 mM MgCl2. The binding reaction was rocked for 1 h at 4° C. and the beads extensively washed in Tris binding buffer (2-3× for 5 mins each). […] CaMKII binding was quantified using densiotometric measurement of band intensity using KODAK 1D Image Analysis Software (Eastman Kodak, Company). […]

[2] = target: cloned L-type channels (subunit α1C77) (Homo sapiens, UniProt Q13936); experiment: Check for use-dependence of diltiazem block of calcium currents supported by cloned L-type channels; format: cell-based; conditions: same solutions and voltage protocol as in granule cells; diltiazem 100 μM
Protocol: Dissociated cerebellar granule cells were prepared from 7-day old C57/BL6 mouse cerebella and grown in culture by a published protocol (Piedras-Renteria and Tsien, 1998; Randall and Tsien, 1995). The cerebellar granule cells were maintained in Minimal Essential Medium (Invitrogen) supplemented with 10% fetal bovine serum, glucose 5 mg/liter, transferrin 100 mg/liter, insulin 25 mg/liter, glutamine 300 mg/liter, and potassium chloride 20 mM. Cells were plated on Matrigel (Collaborative Biomedical Product) treated glass coverslips in 24-well chambers and maintained in a humidified, 37° C. incubator with […]/5% CO2. Cells were maintained for 6 to 9 days in culture prior to electrophysiological experiments. HEK293 cells stably transfected with the α2-δ and β1C subunits (HEKα2β1) were grown in Dulbecco's Modified Eagle's Medium containing 10% v/v calf serum, penicillin (100 units/ml), streptomycin (100 μg/ml), and kept under positive selection with Geneticin (400 μg/ml) while being maintained as described above. cDNAs encoding the α1C77 subunit (Zühlke and Reuter, 1998) and the green fluorescent protein were transiently transfected into HEKα2β1 cells by using the Lipofectamine2000 reagent (Invitrogen). Electrophysiological experiments were performed >24 hrs after transfection.

CaMKII = CaMKII dephosphorylation using PP1, autonomous activity measurement; format: biochemical; conditions: n=4
Protocol: Immunoblots with CBα2 or a phospho-specific CaMKII monoclonal antibody after GST pull down assays, using α1C amino acids 1509-1950 and 20 nM autophosphorylated α-CaMKII. (A) 5 mM EGTA was present in the binding reaction and/or in the wash; in (B), purified recombinant PP1 was added before (PP1-Pre) or after (PP1-Post) the binding reaction in the presence or absence of 5 mM EGTA, as indicated. (C) Time course of reversal of CaMKII autonomous activity following PP1 treatment in solution (n=4). (D) Activity measurements, using peptide AC-2 as a substrate, of CaMKII recovered in GST pull down assays, using α1C amino acids 1509-1950. Ca^2+/CaM-dependent and autonomous activity measurements of CaMKII recovered after treatment with recombinant PP1 for 30 min (PP1) or no treatment (−) in the binding assay (n=4). (E) Proposed mechanism of CaMKII binding to α1C to form a local and dedicated Ca^2+ spike integrator for CDF. […] Ca ^2+/CaM activation and Thr 286 autophosphorylation displace the CaMKII autoregulatory domain within the catalytic lobe to activate the subunit (yellow) and to expose an α1C tethering site. […] CaMKII may remain tethered to other cytoplasmic domains of α1C, as well. […]

[3] = system: L-type Ca^2+ currents in cerebellar granule cells; experiment: Patch-clamp recording of Ca2+-dependent facilitation of L-type currents in cultured cerebellar granule cells; format: cell-based, mouse; conditions: 2 μM peptide in patch pipette; Ca^2+ as charge carrier; train of five pulses; without peptide facilitation averaged ~50%
Protocol: Dissociated cerebellar granule cells were prepared from 7-day old C57/BL6 mouse cerebella and grown in culture by a published protocol (Piedras-Renteria and Tsien, 1998; Randall and Tsien, 1995). The cerebellar granule cells were maintained in Minimal Essential Medium (Invitrogen) supplemented with 10% fetal bovine serum, glucose 5 mg/liter, transferrin 100 mg/liter, insulin 25 mg/liter, glutamine 300 mg/liter, and potassium chloride 20 mM. Cells were plated on Matrigel (Collaborative Biomedical Product) treated glass coverslips in 24-well chambers and maintained in a humidified, 37° C. incubator with […]/5% CO2. Cells were maintained for 6 to 9 days in culture prior to electrophysiological experiments. […]
Cerebellar granule cells, identified on the basis of morphology and size, comprised >90% of the cells in the primary culture. […] Voltage-gated Ca^2+ and Ba^2+ currents were recorded from cells depolarized to 0 mV with five 20 ms pulses (50 ms interpulse interval) from a −90 mV holding potential. […]

Sequence of CaMKII (P11275 whole entry, the tested form may be a part): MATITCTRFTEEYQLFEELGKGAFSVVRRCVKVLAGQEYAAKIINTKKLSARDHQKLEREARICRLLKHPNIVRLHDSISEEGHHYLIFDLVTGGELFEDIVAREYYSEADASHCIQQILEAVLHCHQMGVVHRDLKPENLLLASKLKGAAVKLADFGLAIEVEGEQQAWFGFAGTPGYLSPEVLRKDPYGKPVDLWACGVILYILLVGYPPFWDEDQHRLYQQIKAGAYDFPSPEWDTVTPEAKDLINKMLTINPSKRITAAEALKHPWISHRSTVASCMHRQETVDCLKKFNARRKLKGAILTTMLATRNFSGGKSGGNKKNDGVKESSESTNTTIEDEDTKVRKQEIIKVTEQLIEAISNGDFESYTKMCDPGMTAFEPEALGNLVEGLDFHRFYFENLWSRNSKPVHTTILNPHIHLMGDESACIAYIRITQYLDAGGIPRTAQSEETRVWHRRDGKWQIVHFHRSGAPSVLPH
Sequence of cloned L-type channels (subunit α1C77) (Q13936 1-2138 isoform Q13936-20): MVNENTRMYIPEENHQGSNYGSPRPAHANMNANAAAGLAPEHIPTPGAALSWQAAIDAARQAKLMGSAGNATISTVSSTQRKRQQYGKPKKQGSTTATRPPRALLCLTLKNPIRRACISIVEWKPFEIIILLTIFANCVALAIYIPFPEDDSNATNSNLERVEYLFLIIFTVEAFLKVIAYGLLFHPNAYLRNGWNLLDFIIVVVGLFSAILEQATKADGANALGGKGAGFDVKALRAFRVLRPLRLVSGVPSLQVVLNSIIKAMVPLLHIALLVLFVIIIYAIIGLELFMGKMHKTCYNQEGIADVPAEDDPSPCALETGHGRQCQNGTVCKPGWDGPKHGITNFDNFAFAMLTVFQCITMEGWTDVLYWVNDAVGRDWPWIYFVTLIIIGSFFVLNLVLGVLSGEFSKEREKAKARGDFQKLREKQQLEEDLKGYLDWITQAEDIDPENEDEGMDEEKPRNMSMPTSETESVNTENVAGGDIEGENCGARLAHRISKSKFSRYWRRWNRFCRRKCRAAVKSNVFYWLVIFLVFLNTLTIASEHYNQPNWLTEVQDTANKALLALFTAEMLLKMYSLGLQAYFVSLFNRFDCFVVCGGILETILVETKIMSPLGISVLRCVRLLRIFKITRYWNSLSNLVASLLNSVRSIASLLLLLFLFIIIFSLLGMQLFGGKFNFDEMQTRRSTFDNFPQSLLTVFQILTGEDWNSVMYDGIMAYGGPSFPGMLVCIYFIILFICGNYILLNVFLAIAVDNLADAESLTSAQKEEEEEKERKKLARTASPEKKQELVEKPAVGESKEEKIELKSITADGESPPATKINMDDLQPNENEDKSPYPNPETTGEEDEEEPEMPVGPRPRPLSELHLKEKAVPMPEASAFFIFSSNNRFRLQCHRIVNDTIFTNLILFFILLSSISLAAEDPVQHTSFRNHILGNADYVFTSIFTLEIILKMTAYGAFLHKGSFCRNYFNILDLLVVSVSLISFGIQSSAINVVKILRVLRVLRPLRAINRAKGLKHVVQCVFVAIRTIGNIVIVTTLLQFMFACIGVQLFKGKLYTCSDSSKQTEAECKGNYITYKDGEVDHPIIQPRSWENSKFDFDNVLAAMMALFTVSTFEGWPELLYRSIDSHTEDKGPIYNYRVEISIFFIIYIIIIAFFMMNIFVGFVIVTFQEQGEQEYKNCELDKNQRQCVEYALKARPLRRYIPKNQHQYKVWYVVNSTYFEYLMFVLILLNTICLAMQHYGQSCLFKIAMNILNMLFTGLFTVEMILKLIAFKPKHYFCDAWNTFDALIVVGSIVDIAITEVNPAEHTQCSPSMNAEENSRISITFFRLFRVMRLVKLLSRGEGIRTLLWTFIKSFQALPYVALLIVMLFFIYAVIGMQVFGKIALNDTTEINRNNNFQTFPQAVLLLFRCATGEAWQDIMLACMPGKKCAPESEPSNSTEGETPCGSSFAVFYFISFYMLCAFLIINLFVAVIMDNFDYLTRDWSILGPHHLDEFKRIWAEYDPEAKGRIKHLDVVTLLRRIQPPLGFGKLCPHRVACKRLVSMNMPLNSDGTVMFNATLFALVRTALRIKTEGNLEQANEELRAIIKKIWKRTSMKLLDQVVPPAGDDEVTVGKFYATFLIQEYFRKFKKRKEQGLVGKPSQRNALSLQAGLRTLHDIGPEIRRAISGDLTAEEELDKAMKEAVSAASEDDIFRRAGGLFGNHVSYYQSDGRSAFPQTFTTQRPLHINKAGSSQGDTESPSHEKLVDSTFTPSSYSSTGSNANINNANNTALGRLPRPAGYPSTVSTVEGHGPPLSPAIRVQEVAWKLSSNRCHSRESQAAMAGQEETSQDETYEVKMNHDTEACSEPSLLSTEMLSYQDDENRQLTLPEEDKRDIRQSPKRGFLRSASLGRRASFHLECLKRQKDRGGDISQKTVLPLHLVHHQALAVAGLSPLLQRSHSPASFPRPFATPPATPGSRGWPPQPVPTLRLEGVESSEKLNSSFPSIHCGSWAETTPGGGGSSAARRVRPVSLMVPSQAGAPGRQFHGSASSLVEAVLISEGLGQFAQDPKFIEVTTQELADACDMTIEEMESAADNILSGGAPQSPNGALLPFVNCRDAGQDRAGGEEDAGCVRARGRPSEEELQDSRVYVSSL
Sequence of cloned L-type channels (subunit α1C77) (P54289 25-956 partner limits assumed): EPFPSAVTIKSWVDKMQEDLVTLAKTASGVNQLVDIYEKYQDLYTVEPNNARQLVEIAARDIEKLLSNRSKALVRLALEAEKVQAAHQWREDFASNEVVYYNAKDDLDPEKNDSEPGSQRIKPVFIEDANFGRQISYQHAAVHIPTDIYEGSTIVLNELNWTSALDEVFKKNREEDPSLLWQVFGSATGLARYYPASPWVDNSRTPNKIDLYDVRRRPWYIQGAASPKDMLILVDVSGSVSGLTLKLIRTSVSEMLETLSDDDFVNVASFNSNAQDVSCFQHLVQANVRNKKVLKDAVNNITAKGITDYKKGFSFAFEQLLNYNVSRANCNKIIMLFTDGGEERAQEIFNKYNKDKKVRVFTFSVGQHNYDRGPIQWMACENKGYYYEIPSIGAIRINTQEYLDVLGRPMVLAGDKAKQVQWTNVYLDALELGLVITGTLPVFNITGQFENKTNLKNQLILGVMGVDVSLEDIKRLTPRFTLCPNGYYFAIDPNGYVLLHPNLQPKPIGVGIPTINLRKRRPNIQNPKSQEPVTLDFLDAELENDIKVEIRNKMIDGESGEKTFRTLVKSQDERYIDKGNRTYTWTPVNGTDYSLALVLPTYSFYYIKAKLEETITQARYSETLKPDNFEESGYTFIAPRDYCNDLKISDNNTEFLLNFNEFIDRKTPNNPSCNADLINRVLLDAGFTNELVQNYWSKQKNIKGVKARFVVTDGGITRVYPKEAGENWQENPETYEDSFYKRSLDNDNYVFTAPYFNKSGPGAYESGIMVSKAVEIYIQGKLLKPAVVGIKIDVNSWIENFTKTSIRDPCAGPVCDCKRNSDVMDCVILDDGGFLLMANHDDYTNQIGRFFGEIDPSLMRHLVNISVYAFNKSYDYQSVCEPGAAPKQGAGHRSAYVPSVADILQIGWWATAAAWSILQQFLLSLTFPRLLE
Sequence of cloned L-type channels (subunit α1C77) (P54289 957-1103 partner limits assumed): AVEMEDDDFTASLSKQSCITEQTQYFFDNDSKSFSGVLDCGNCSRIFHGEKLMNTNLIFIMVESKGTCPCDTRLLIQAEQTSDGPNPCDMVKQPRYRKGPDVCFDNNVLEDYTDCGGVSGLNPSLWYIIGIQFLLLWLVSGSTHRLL
Sequence of cloned L-type channels (subunit α1C77) (Q02641 whole entry partner): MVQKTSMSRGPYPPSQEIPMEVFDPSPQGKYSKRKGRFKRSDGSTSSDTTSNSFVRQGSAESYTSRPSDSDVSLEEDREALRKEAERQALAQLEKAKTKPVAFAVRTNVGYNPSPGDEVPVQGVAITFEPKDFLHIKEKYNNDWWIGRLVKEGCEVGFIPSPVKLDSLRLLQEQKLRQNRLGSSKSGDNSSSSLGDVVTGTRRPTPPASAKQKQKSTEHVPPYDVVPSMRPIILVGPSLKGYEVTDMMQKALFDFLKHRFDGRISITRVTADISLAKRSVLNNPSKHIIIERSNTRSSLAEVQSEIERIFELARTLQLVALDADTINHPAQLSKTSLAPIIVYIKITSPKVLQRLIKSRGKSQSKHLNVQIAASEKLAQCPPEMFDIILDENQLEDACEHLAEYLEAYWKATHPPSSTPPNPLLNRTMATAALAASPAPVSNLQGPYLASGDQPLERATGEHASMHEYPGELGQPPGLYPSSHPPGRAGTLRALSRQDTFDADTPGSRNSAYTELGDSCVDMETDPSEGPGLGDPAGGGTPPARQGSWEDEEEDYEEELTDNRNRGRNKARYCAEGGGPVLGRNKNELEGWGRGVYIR

## 1589-1610: ~22 aa peptide of α1C residues 1589-1610, site important for tethering of apoCaM (KRLVSMNMPLNSDGTVMFNATL; UniProt Q13936 1589-1610, looked up, fragment)
[1]
  interaction of the kinase with the 1581-1690 fusion protein in presence of peptide: not inhibited

## 1615-1636: ~22 aa peptide of α1C residues 1615-1636, site important for tethering of apoCaM (RTALRIKTEGNLEQANEELRAI; UniProt Q13936 1615-1636, looked up, fragment)
[1]
  interaction of the kinase with the 1581-1690 fusion protein in presence of peptide: not inhibited

## 1639-1660: ~22 aa peptide generated from α1C residues 1639-1660 (Pitt et al., 2001) (KIWKRTSMKLLDQVVPPAGDDE; UniProt Q13936 1639-1660, looked up, fragment)
[1]
  interaction of the kinase with the 1581-1690 fusion protein in presence of peptide: dramatically reduced

## COc1ccc([C@@H]2Sc3ccccc3N(CCN(C)C)C(=O)[C@@H]2OC(C)=O)cc1 [diltiazem]
[2]
  use-dependence of diltiazem block of calcium currents: none were found

## PP1: Hisx6-tagged protein phosphatase 1 catalytic subunit, purified recombinant
CaMKII; PP1 for 30 min, peptide AC-2 as substrate
  remaining autonomous activity of α1C-bound CaMKII, % of that without PP1 treatment: 1.2±0.6%
CaMKII; soluble CaMKII in solution
  time to complete dephosphorylation (loss of autonomous activity) of soluble kinase: ≤ 30 min

## autocamtide-2-related inhibitory peptide (KKALRRQEAVDAL)
[3]
  decrease in peak L-type current over the course of the depolarizing pulse train: ~25%
